Experimental data from publication PMC7768359, “Synthesis of Platinum(II) Complexes with Some 1-Methylnitropyrazoles and In Vitro Research on Their Cytotoxic Activity” (Pharmaceuticals, 2020).

Experiments:
Type in all cases: cell-based, human
[1] = system: MCF-7 (breast adenocarcinoma); assay: In vitro cytotoxicity, sulforhodamine B assay; details: for growth inhibition stronger than reference cisplatin (factor): MCF-7
Method: (§1) Determination of the cytotoxic activity of compounds tested was performed separately in the normoxia or hypoxia conditions to reveal their potentially bioreductive properties. The experiment was carried out on three human cancer cell lines: MCF-7 breast, ES-2 ovarian and A549 lung adenocarcinoma as well as normal murine embryonic fibroblast BALB/3T3 cell line. In order to facilitate the preparation of solutions of the tested compounds, their initial solutions for dilution were made by dissolving the compounds in acetone. For this purpose, it was not possible to use more polar aprotic solvents (DMSO, DMF) due to the rapid isomerization of some of the tested complexes under their influence.
(§2) All the cell lines were cultured at 37 °C in a humid atmosphere containing 5% CO2. Additionally, in the case of cytotoxicity assay with hypoxic conditions, the cells (MCF-7, ES-2, A549) were maintained at 37 °C in a humid atmosphere containing 5% CO2 and 1% O2 during the entire experiment.
(§3) Twenty-four hours before adding the tested compounds, all cell lines were seeded in 96-well plates ([…] AG & Co, Nümbrecht Germany) in an appropriate media with 10^4 cells per well. All cell lines were exposed to each compound tested at four different concentrations for 72 h. […] Additionally, all cell lines were exposed to acetone (Avantor Performance Materials, Gliwice, Poland) (the solvent used for tested compounds) at concentrations corresponding to those present in tested compounds’ dilutions.
(§4) After 72 h of cell incubation with the compounds tested, the sulforhodamine B (SRB) assay was performed as described by Shekan et al. with minor modifications. The cells were fixed in situ by adding 50 µL per well of cold 50% trichloroacetic acid (Avantor Performance Materials, Gliwice, Poland) and were incubated at 4 °C for one hour. Following that, wells were washed five times with water and air dried. Next, 50 µL of 0.4% solution of sulforhodamine B (Sigma-Aldrich, Steinheim, Germany) in 1% acetic acid (Avantor Performance Materials, Gliwice, Poland) were added to each well and plates were incubated at room temperature for 0.5 h. After incubation time, the unbound dye was removed by washing plates five times with 1% acetic acid, whereas stains bound to cells was solubilized with 10 mM Tris base (Sigma-Aldrich, Steinheim, Germany). The absorbance of each solution was read by the Multiskan RC photometer (Labsystems Diagnostics Oy, Vantaa, Finland) at a 540 nm wavelength. Results are presented as mean IC50 (concentration of the compound tested that inhibits cell proliferation by 50%) ± standard deviation. IC50 values were calculated for each experiment on the basis of four different concentrations using Cheburator software, as described by Nevozhay. The tested compounds at each concentration were tested in triplicates in a single experiment and each experiment was repeated at least three times independently.

[2] = system: ES-2 (ovarian adenocarcinoma); assay: In vitro cytotoxicity, sulforhodamine B assay; details: 72 h
Method: as §1, §2, §3, §4

[3] = system: HL-60 cells; assay: Determination of apoptosis by Annexin V / PI staining; details: 48 h
Method: To establish how compounds 1 and 2 influence the cell cycle and cell death, the HL-60 human promyelocytic leukemia cell line was used. The results are outlined in the Figure 7 and Figure 8, respectively. […] This led to disturbances in the cell cycle progression, expressed as a significant decrease in G0/G1 and S phase, compared to the untreated control (Figure 7).
The HL-60 cells and compounds tested were prepared in the same way as for analysis of the cell cycle distribution. The cells were also exposed to camptothecin (2 µg/mL; Sigma-Aldrich, Steinheim, Germany) as a positive control of apoptosis induction. After 48 h of incubation, or in the case of camptothecin after 24 h, the cells were collected and washed in PBS (HIIET, Wroclaw, Poland) supplemented with 2% of fetal bovine serum and counted in a hemacytometer. The cells (2 × 10^5) were washed twice in PBS. Next, cells were suspended in 200 μL of the mixture of HEPES buffer: 10 mM HEPES, 150 mM NaCl, 5 mM KCl, 1 mM MgCl2, 1.8 mM CaCl2, (HIIET, Wroclaw, Poland) and Annexin V-FITC (Alexis Biochemicals, San Diego, CA, USA), each time freshly prepared according to the manufacturer’s recommendations. After 15 min of incubation in darkness at room temperature, propidium iodide (PI) solution (0.1 mg/mL) was added prior to analysis to give a final concentration of 10 µg/mL. […] Data were analyzed in a BD FACS Diva 6.2 program. […]

In the case of Cn1cc([N+](=O)[O-])c[n+]1[Pt@SP2-2]([Cl])([Cl])[n+]1cc([N+](=O)[O-])cn1C [Compound 1, cis-dichloridobis(1-methyl-4-nitropyrazole)platinum(II)], the “IC50 ± SD” value ([1]; MCF-7, hypoxia (1% O2), 72 h) is reported as “inactive”, the IC50 ([1]; MCF-7, normoxia, 72 h) is reported as 74.7 ± 36.1 µM and the IC50 ([2]; ES-2, hypoxia (1% O2)) is reported as 109 ± 22.6 µM. For the same compound, the IC50 ([2]; ES-2, normoxia) was 29.4 ± 24.9 µM and the “proapoptotic activity (Annexin V / propidium iodide)” value ([3]; HL-60, 80 µM) was “statistically significant increase in early and late apoptotic cells”.
With Cn1cc([N+](=O)[O-])c[n+]1[Pt@SP3-2]([Cl])([Cl])[n+]1cc([N+](=O)[O-])cn1C [Compound 2, trans-dichloridobis(1-methyl-4-nitropyrazole)platinum(II)] the “growth inhibition stronger than reference cisplatin (factor)” value [1] was “about seven times”, the IC50 ([1]; MCF-7, hypoxia (1% O2), 72 h) was 11.1 ± 5.6 µM and the IC50 ([1]; MCF-7, normoxia, 72 h) was 1.8 ± 0.9 µM. The IC50 ([2]; ES-2, hypoxia (1% O2)) was 1.1 ± 0.3 µM, the IC50 ([2]; ES-2, normoxia) was 0.7 ± 0.7 µM and the “effect on the number of necrotic and late apoptotic HL-60 cells” value ([3]; compared to 0.3 µM cisplatin and control) was “did not show any substantial effect”.
Cn1c([N+](=O)[O-])cc[n+]1[Pt@SP2-2]([Cl])([Cl])[n+]1ccc([N+](=O)[O-])n1C [Compound 3, cis-dichloridobis(1-methyl-5-nitropyrazole)platinum(II)] gave an IC50 ([1]; MCF-7, hypoxia (1% O2), 72 h) of 41.5 ± 39.9 µM, an IC50 ([1]; MCF-7, normoxia, 72 h) of 10.1 ± 1.4 µM and an IC50 ([2]; ES-2, hypoxia (1% O2)) of 51.9 ± 16.7 µM. It also gave an IC50 ([2]; ES-2, normoxia) of 75.4 ± 12.3 µM.
For Cn1c([N+](=O)[O-])cc[n+]1[Pt@SP3-2]([Cl])([Cl])[n+]1ccc([N+](=O)[O-])n1C [Compound 4, trans-dichloridobis(1-methyl-5-nitropyrazole)platinum(II)], the “growth inhibition stronger than reference cisplatin (factor)” value [1] was “almost two times”, the IC50 ([1]; MCF-7, hypoxia (1% O2), 72 h) was 32 ± 9.2 µM and the IC50 ([1]; MCF-7, normoxia, 72 h) was 7.8 ± 1.3 µM. For the same compound, the IC50 ([2]; ES-2, hypoxia (1% O2)) was 32.3 ± 27 µM and the IC50 ([2]; ES-2, normoxia) was 41.1 ± 7.1 µM.
